The record followed here is US20030232868A1, “Cyclic carboxylic acids as integrin antagonists” (priority 2000, published 2003).

Read-outs that look alike come from different tables or passages of the source.

Data set [1] concerns adhesion of Ramos cells to VCAM-1. The data set is described as follows: Adhesion of Ramos cells to immobilized VCAM-1 (domains 1-3) (Ramos—VCAM-1 assay). Particulars: Homo sapiens. In kind it is cell-based. The text has this:
In Vitro Assay: Adhesion of Jurkat/Ramos Cells to Immobilized VCAM-1 (Domains 1-3)
Preparation of VCAM-1 (Extracellular Domains 1-3)
Complementary DNA (cDNA) encoding 7 domain form of VCAM-1 (GenBank accession #M60335) was obtained using Rapid-Screen™ cDNA library panels (OriGene Technologies, Inc) at Takara Gene Analysis Center (Shiga, Japan). The primers used were 5′-CCAAGGCAGAGTACGCAAAC-3′ (sense) and 5′-TGGCAGGTATTATTAAGGAG-3′ (antisense). PCR amplification of the 3 domain VCAM-1 cDNA was perform using Pfu DNA polymerase (Stratagene) with the following sets of primers: (U-VCAMd1-3) 5′-CCATATGGTACCTGATCAATTTAAAATCGAGACCACCCCAGAA-3′; (L-VCAMd1-3) 5′-CCATATAGCAATCCTAGGTCCAGGGGAGATCTCAACAGTAAA-3′. PCR cycle was 94° C. for 45 sec. 55° C. for 45 sec, 72° C. for 2 min, repeating 15 cycles. After the purification of the PCR product, the fragment was digested with KpnI-AvrII. The digested fragment was ligated into pBluescript IISK(−) (Strategene), which was linearized by digesting with KpnI-XhoI. The ligation was followed by transformation to a Dam/Dcm methylase-free E. coli strain SCS110 (Strategene) to create the donor plasmid pHH7. To direct VCAM-1 molecule into the insect cell secretory pathway, the VCAM-1 coding sequence was fused to signal peptide sequence of honeybee melittin. The resulting melittin-VCAM fusion was placed in correct orientation to the baculovirus polyhedrin promoter. Baculovirus transfer vector containing first 3-domain form VCAM-1 (pH 10) was constructed by ligation of 0.9 kb fragment from AvrII/Klenow/BclI digests of pH 7 into SalI/Klenow/BamHI digests of pMelBacB Invitrogen). Recombinant baculovirus was generated by using Bac-N-Blue™ Transfection kit (Invitrogen) according to the manufacture's instruction. The recombinant virus was amplified by infection to High-Five™ insect cells for 5-6 days, and virus titer was determined by plaque assay.
High-Five™ insect cells were pelleted in a 225 ml conical tube by centrifugation at 1000 rpm for 5 min. After discarding the supernatant, the pellet was resuspended in 1.5×10^9 pfu (MOI=5) of high-titer virus solution, followed by incubation for 1.5 hours at room temperature. The cells were pelleted again and washed once in fresh Express Five™ serum free medium. The cells were pelleted again and finally, resuspended in 200 ml of fresh Express Five TM medium, transferred to a 1,000 ml shaker flask, and incubated in a shaker at 27° C., 130 rpm, for 48 hours before the culture supernatant was collected. The purification of 3-domain form of VCAM-1 from the culture supernatant was performed by one-step anion exchange chromatography. Protein concentration was determined by using Coomassie protein assay reagent (Pierce) according to the manufacture's instruction.
Preparation of VCAM-1 Coated Microtiter Plates
Recombinant human VCAM-1 (extracellular domains 1-3) was dissolved at 1.0 μg/1 ml in PBS. Each well of the microtiter plates (Nalge Nunc International, Fluoro-nunc Cert, 437958) was coated with 100 μl of substrate or for background control with buffer alone for 15 hours at 4 C. After discarding the substrate solution, the wells were blocked using 150 μl per well of block solution Kirkegaard Perry Laboratories, 50-61-01) for 90 minutes. The plate was washed with wash buffer containing 24 mM Tris-HCl (pH 7.4), 137 mM NaCl, […] and 2 MM MnCl2 just before addition of the assay.
In Vitro Assay using Ramos Cells
Preparation of Fluorescence Labeled Ramos Cells:
Ramos cells (American Type Culture Collection, Clone CRL-1596) were cultured in RPMI 1640 medium (Nikken Bio Medical Laboratory, CM1101) supplemented with 10% fetal bovine serum (Hyclone, A-1119-L), 100 U/ml penicilin (Gibco BRL, 15140-122) and 100 μg/ml streptomycin (Gibco BRL, 15140-122) in a humidified incubator at 37° C. with 5% CO2. […]

The IC50 is the concentration at which inhibition is half-maximal. The term melting point denotes the temperature, or range, at which the solid turns liquid. `Cc1ccccc1NC(=O)Nc1ccc(CC(=O)N[C@@H](CC(C)C)C(=O)Nc2cc(Cl)c(C(=O)O)cc2Cl)cc1` [Example 50]: the melting point lay within 185 to 188 °C. Also, in data set [1] (Ramos, 1 h), the IC50 was in the range of 2000 to 10000 nM.
In the same order, the values of `Cc1ccccc1NC(=O)Nc1ccc(CC(=O)N[C@@H](CC(C)C)C(=O)Nc2cc(C(=O)O)cc([N+](=O)[O-])c2)cc1` [Example 51] are 188 to 190 °C and 2000 to 10000 nM.
In the same order, the values of `Cc1ccccc1NC(=O)Nc1ccc(CC(=O)N[C@@H](CC(C)C)C(=O)N(C)c2nc(CC(=O)O)cs2)cc1` [Example 56] are 172 to 174 °C and greater than 10000 nM.
On to `Cc1ccccc1NC(=O)Nc1ccc(CC(=O)N[C@@H](CCCCN)C(=O)Nc2ccc(C(=O)O)cc2)cc1.O=C(O)C(F)(F)F` [Example 58], for which the melting point lay in the range of 168 to 169 °C. In data set [1] (Cell Type Ramos, adhesion to VCAM-1 coated plates, 1 hour at 37 C, IC50 value ranges, read-out: IC50), the IC50 is less than 500 nM.
For the compound `COCCCN(CC(=O)Nc1ccc(C(=O)O)cc1)C(=O)Cc1ccc(NC(=O)Nc2ccccc2C)cc1` [Example 59], the melting point lay within 210 to 218 °C. Also, the IC50 in data set [1] (Ramos, 1 h) was less than 500 nM.
